{"source": "patent US8053627B2", "about": "“Methods for treating demyelination disorders” (University of Chicago, priority 2005, dated 2011)", "key": {"corpus callosum": {"test_system": "corpus callosum", "experiment": "Cuprizone remyelination in double transgenic mice on PERK+/+ or PERK+/− background", "type": "in vivo", "settings": "for remyelinated axons: 9 weeks", "text": "The involvement of the ER stress response in the reduction caused by IFN-γ to remyelinate lesions was examined in transgenic mice that were generated to be heterozygous for a loss of function mutation in pancreatic ER kinase (PERK) (Harding, et al., (2001) Mol Cell 7:1153-1163), and to be temporally regulated for expressing INF-γ in the CNS. TRE/IFN-γ mice were first crossed with PERK+/− mice (Harding, et al. (2001) Mol. Cell 7: 1153-1163) on the C57BL/6 background to generate mice the carry the PERK mutation, and the resulting progeny were crossed to GFAP/tTA mice to obtain transgenic mice that were heterozygous for the PERK mutation. The effect of PERK on remyelination in the presence or absence of INF-γ was evaluated as evaluated as a function of the level of meylination of oligodendrocytes in remyelinating lesions and the number of oligodendrocytes present in the remyelinating lesion.\nThe extent of remyelination was assessed as described in the previous examples in the corpus callosum of PERK+/+ and PERK+/− mice that were made to express INF-γ (DOX−PERK+/+ and DOX−PERK+/−), and in mice in which the expression of INF-γ was repressed (DOX+PERK+/+ and DOX+PERK+/−). Remyelination was determined by electron microscopy, and was related to the number of CC1 positive oligodendrocytes and the level of caspase-3 expression in the corpus callosum of all animals. The level of caspase-3 was determined by immunohistochemical methods using anti capsase antibody (active-casoase-3 antibody, 1:50; Cel Signaling Technology) and according to the method described in Example 1. Demyelination was induced in six-week-old GFAP/tTA; TRE/IFN-γ double transgenic mice on a PERK+/− background that had been maintained on doxycycline, by simultaneously treating the mice with 0.2% cuprizone and releasing them from doxycycline (DOX−PERK+/−). Remyelination was allowed to occur by withdrawing cuprizone at week 6."}, "[1]": {"test_system": "myelinating oligodendrocytes in the CNS", "experiment": "Ectopic CNS expression of IFN-γ during development (released from doxycycline at E14), wild-type or PERK+/− background", "type": "in vivo, mice", "text": "To study the effect of INF-γ on the myelination of oligodendrocytes during mouse development, transgenic mice that allow for temporally regulated delivery of IFN-γ to the CNS using the tetracycline (tet) controllable system (Lin, et al. (2004) J. Neurosci. 24: 10074-10083) were generated. To drive tTA expression in astrocytes, the transcriptional regulatory region of the glial fibrillary acidic protein (GFAP) gene was chosen (Brenner, et al. (1994) J. Neurosci. 14: 1030-1037). GFAP/tTA mice were mated with TRE/IFN-γ mice to produce animals hemizygous for both transgenes. When these mice are maintained on doxycycline (DOX+), expression of the IFN-γ transgene is repressed (FIG. 10A); when the double transgenic mice are released from doxycycline (DOX−) INF-γ is expressed. For the purpose of these experiments, mice received doxycycline up to day 14 of development (E14), at which time the experimental animals (DOX−) stopped receiving doxycycline, while the control animals (DOX+) were continuously fed the dug. The mRNA for IFN-γ could be detected in the DOX− mice as early as 10 days after birth (data not shown).\nReal time PCR analysis was performed to determine the levels of expression of INF-γ, MHC-1, BIP, CHOP, and caspase 12. The primers for the PCR reactions for BIP, CHP and caspase 12 are given in example 1. The sense and antisense primers for INF-γ were […] (SEQ ID NO: 39) and […] (SEQ ID NO: 40), respectively; and the sense and antisense primers for MHC-1 were MHC-I sense primer: ATTCCCCAAAGGCCCATGT (SEQ ID NO: 1); and MHC-I antisense primer: […] (SEQ ID NO: 2).\nWestern blot analysis was performed on the CNS of 14 day old mice to determine the expression of caspase-12 as described in Example 6.\nBrain and spinal cord tissue were analyzed using immunohistochemical methods as follows. Anesthetized mice were perfused through the left cardiac ventricle with 4% paraformaldehyde in 0.1M PBS. The half-saggital brains and transcervical spinal cord were removed, postfixed with paraformaldehyde, cryopreserved in 30% sucrose, embedded in OCT and frozen on dry ice. Frozen sections were cut in a cryostat at a thickness of 10 μm. Coronal sections at the fornix region of the corpus callosum corresponding to Sidman sections 241-251 were selected for use, and all comparative analyses were restricted to midline corpus callosum (Sidman, et al. (1971) Atlas of the Mouse Brain and Spinal Cord (Harvard Univ. Press, Cambridge, Mass.). For immunohistochemistry, frozen sections were treated with −20° C. acetone, blocked with PBS containing 10% NGS and 0.1% Triton X-100 and incubated overnight with the primary antibody diluted in blocking solution. Appropriate fluorochrome- or enzyme-labeled secondary antibodies (Vector Laboratories, Burlingame, Calif.) were used for detection. An antibody against CC1 (APC7, 1:50; EMD Biosciences, Inc., La Jolla, Calif.) was used as a marker for mature oligodendrocytes. Antibody against MBP (1:1000; Sternberger Monoclonals, Lutherville, Mass.) was used to verify the degree of myelination. Antibody against active-caspase-3 (1:50, Cell signaling Technology, Beverly, Mass.) was used as a marker for apoptotic cells. Fluorescent stained sections were mounted with Vectashield mounting medium with DAPI (Vector Laboratories) and visualized with a Zeiss Axioplan fluorescence microscope. Images were captured using a Photometrics PXL CCD camera connected to an Apple Macintosh computer using the Open Lab software suite. Immunopositive cells were quantified by counting positive cells within the median of the corpus callosum, confined to an area of 0.04 mm^2. Only those cells with nuclei observable by DAPI staining were counted. Each MBP immunostaining slide was scored on a scale of zero to four. A score of zero indicates complete demyelination, and a score of four indicates normal myelination in the corpus callosum of adult mice. […]"}, "[2]": {"settings": "PERK+/− background, released from doxycycline at E14"}, "[3]": {"settings": "wild-type background, released from doxycycline at E14"}}}
{"substance": "IFN-γ: pleotropic cytokine secreted by activated T lymphocytes and natural killer cells; delivered to the CNS by transgene or added as recombinant protein", "values": [{"measurement": "remyelinated axons", "setting": "corpus callosum; DOX−PERK+/+", "value": "31.1%±7.6%"}, {"measurement": "CC1 positive oligodendrocytes", "setting": "corpus callosum; DOX−PERK+/+, week 9", "value": "123.2±27.5 /0.04 mm^2"}, {"measurement": "remyelinated axons", "setting": "corpus callosum; DOX−PERK+/−", "value": "15.6%±7.6%"}, {"measurement": "caspase-3 positive oligodendrocytes, DOX−PERK+/− relative to DOX−PERK+/+", "setting": "corpus callosum; week 9", "value": 2.3, "unit": "times"}, {"measurement": "BIP expression relative to control levels", "setting": "[1]; CNS, PND 14, DOX− from E14", "value": "approximately 1.6 times"}, {"measurement": "CHOP expression relative to control levels", "setting": "[1]; CNS, PND 14, DOX− from E14", "value": "~2", "unit": "times"}, {"measurement": "caspase-12 expression", "setting": "[1]; CNS, PND 14, DOX− from E14", "value": "strongly enhanced"}, {"measurement": "state of myelination", "setting": "[1]; DOX− double transgenic mice, wild-type background", "value": "mildly hypomyelinated"}, {"measurement": "decrease of oligodendrocyte numbers in the spinal cord (CC1)", "setting": "[1]; PERK+/− background, 14-day-old", "value": "more than 50%"}, {"measurement": "mice that died by post natal day (PND) 27", "setting": "[1]; [2]", "value": "more than 90%"}, {"measurement": "mice that experienced tonic seizures", "setting": "[1]; [2]", "value": "approximately two-thirds"}, {"measurement": "unmyelinated axons in the spinal cord", "setting": "[1]; PERK+/− mice expressing IFN-γ, 14-day-old", "value": "81%±14.9%"}, {"measurement": "TUNEL positive oligodendrocytes in the cervical spinal cord, PERK+/− relative to wild-type background", "setting": "[1]; released from doxycycline at E 14", "value": 2.5, "unit": "times"}, {"measurement": "survival", "setting": "[1]; [3]", "value": "normal survival"}, {"measurement": "unmyelinated axons in the spinal cord", "setting": "[1]; [3]", "value": "30%±12.9%"}]}
